Results from article PMC3057289 (2011).

Molecular target: T1, TRPC5 (Homo sapiens, UniProt Q9UL62)
T1 sequence (Q9UL62 1-973): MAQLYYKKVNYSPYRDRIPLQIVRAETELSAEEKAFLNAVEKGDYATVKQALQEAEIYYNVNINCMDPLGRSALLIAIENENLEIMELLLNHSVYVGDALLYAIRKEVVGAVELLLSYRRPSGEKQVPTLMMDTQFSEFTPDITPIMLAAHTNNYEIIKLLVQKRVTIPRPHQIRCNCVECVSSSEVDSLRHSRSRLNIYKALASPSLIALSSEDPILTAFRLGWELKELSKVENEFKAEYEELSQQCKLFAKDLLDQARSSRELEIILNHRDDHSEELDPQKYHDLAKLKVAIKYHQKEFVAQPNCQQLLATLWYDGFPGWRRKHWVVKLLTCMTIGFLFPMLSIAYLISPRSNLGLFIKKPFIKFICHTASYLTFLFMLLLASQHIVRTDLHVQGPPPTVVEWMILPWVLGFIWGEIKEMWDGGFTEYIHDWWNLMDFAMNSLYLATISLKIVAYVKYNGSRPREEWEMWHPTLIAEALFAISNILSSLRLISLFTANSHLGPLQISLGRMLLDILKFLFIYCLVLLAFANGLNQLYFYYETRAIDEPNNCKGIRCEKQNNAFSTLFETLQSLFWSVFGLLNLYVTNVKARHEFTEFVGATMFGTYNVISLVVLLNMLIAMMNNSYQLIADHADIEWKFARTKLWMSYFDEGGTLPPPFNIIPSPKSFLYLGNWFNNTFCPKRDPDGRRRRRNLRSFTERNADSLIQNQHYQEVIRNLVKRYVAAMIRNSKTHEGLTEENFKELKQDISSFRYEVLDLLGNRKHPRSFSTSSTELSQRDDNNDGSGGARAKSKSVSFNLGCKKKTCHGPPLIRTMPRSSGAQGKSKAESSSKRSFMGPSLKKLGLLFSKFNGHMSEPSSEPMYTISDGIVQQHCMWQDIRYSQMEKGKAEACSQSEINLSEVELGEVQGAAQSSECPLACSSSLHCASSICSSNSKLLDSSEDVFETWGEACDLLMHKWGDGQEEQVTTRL
Format: cell-based

CC(=O)[C@H]1CC[C@H]2[C@@H]3CCC4=CC(=O)CC[C@]4(C)[C@H]3CC[C@]12C [prog, progesterone]
IC50: 5 µM
